Test results from ChEMBL document CHEMBL5042544, “Discovery of a Potent and Selective ATAD2 Bromodomain Inhibitor with Antiproliferative Activity in Breast Cancer Models” (J Med Chem, 2022).

Legend:
[1] = molecular target: Bromodomain-containing protein 3 (Homo sapiens, UniProt Q15059); test: Binding affinity to human BRD3 bromodomain 1 assessed as residual activity at 300 nM by BROMOscan method relative to control
[2] = Distribution coefficient, logD of compound at pH 7.4; format: physicochemical; details: octanol/water
[3] = molecular target: T1, ATPase family AAA domain-containing protein 2 (Homo sapiens, UniProt Q6PL18); test: Displacement of Halo-tagged Histone H3.3 from Nanoluc-ATAD2A BD (962 to 1119 residues) (unknown origin) transfected in human HCT116 cells incubated for 18 hrs by NanoBRET assay; format: cell-based, HCT-116
T1 sequence (Q6PL18 whole entry): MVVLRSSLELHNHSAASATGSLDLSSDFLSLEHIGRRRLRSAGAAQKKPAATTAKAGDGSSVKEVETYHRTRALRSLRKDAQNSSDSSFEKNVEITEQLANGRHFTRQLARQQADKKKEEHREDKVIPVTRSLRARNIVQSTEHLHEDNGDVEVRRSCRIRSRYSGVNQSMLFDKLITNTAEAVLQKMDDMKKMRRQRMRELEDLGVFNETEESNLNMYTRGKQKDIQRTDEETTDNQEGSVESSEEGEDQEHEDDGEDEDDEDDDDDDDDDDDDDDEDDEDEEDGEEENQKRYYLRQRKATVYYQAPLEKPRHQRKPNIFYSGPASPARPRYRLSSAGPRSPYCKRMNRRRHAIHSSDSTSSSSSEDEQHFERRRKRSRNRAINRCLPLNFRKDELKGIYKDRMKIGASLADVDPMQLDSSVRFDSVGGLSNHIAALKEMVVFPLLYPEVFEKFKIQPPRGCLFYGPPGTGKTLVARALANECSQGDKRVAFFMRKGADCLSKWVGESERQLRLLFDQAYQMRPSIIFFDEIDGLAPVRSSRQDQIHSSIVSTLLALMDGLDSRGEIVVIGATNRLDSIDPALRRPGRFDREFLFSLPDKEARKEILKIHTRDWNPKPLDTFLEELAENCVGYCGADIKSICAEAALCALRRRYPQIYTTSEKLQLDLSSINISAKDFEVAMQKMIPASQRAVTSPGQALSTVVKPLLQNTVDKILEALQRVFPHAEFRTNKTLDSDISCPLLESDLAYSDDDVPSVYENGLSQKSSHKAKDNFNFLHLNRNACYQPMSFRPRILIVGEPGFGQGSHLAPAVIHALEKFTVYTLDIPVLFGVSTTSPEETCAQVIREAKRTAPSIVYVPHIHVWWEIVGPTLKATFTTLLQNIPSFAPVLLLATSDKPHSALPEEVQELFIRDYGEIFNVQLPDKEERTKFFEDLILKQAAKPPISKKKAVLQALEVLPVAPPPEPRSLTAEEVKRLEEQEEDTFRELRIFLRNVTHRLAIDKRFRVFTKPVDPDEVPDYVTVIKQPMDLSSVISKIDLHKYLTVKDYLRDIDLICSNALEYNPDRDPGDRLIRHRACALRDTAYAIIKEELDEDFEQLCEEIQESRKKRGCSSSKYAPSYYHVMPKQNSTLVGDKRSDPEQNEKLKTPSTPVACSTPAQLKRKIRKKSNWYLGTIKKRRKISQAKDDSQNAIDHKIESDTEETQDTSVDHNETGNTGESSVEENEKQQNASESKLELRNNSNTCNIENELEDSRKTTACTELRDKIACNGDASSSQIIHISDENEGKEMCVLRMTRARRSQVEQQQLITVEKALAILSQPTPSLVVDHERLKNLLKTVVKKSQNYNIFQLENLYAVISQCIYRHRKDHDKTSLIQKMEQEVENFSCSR

[4] = molecular target: T1, ATPase family AAA domain-containing protein 2; test: Displacement of Halo-tagged Histone H3.3 from Nanoluc-ATAD2 BD (962 to 1119 residues) (unknown origin) transfected in human HCT116 cells incubated for 18 hrs in presence of efflux inhibitor verapamil by NanoBRET assay; format: cell-based, HCT-116
[5] = molecular target: Bromodomain adjacent to zinc finger domain protein 2A (Homo sapiens) (UniProt Q9UIF9); test: Binding affinity to human BAZ2A bromodomain assessed as residual activity at 300 nM by BROMOscan method relative to control
[6] = molecular target: Bromodomain-containing protein 1 (Homo sapiens) (UniProt O95696); test: Binding affinity to human BRD1 bromodomain assessed as residual activity at 300 nM by BROMOscan method relative to control
[7] = molecular target: Bromodomain-containing protein 7 (Homo sapiens) (UniProt Q9NPI1); test: Binding affinity to human BRD7 bromodomain assessed as residual activity at 300 nM by BROMOscan method relative to control
[8] = molecular target: Nucleosome-remodeling factor subunit BPTF (Homo sapiens, UniProt Q12830); test: Binding affinity to human FALZ bromodomain assessed as residual activity at 300 nM by BROMOscan method relative to control
[9] = molecular target: Histone acetyltransferase KAT2B (Homo sapiens, UniProt Q92831); test: Binding affinity to human PCAF bromodomain assessed as residual activity at 300 nM by BROMOscan method relative to control
[10] = molecular target: Transcription initiation factor TFIID subunit 1 (Homo sapiens, UniProt P21675); test: Binding affinity to human TAF1 bromodomain 2 assessed as residual activity at 300 nM by BROMOscan method relative to control
[11] = molecular target: Transcription intermediary factor 1-alpha (Homo sapiens) (UniProt O15164); test: Binding affinity to human TRIM24 bromodomain assessed as residual activity at 300 nM by BROMOscan method relative to control
[12] = Binding affinity to human ATAD2A assessed as dissociation constant by BROMOscan method
[13] = molecular target: Bromodomain-containing protein 9 (Homo sapiens, UniProt Q9H8M2); test: Binding affinity to human BRD9 bromodomain by BROMOscan method
[14] = molecular target: Bromodomain testis-specific protein (Homo sapiens, UniProt Q58F21); test: Binding affinity to human BRDT bromodomain 1 assessed as dissociation constant by BROMOscan method
[15] = molecular target: Chromatin remodeling regulator CECR2 (Homo sapiens, UniProt Q9BXF3); test: Binding affinity to human CECR2 bromodomain assessed as dissociation constant by BROMOscan method
[16] = molecular target: Protein polybromo-1 (Homo sapiens, UniProt Q86U86); test: Binding affinity to human PBRM1 bromodomain 5 assessed as dissociation constant by BROMOscan method
[17] = molecular target: SWI/SNF-related matrix-associated actin-dependent regulator of chromatin subfamily A member 2 (Homo sapiens, UniProt P51531); test: Binding affinity to human SMARCA2 bromodomain assessed as dissociation constant by BROMOscan method
[18] = test system: MDA-MB-468; test: Antiproliferative activity against human MDA-MB-468 cells expressing ATAD2 assessed as inhibition of colony formation at 0.01 to 10 uM measured after 14 to 21 days by AlamarBlue staining based colony formation assay; format: functional, cell-based; details: dose 0.01-10 µM, time 14-21 day
[19] = test system: T47D; test: Antiproliferative activity against human T-47D cells expressing ATAD2 assessed as inhibition of colony formation at 0.01 to 10 uM measured after 14 to 21 days by AlamarBlue staining based colony formation assay; format: functional, cell-based; details: dose 0.01-10 µM, time 14-21 day

Protein polybromo-1, sequence (Q86U86 whole entry): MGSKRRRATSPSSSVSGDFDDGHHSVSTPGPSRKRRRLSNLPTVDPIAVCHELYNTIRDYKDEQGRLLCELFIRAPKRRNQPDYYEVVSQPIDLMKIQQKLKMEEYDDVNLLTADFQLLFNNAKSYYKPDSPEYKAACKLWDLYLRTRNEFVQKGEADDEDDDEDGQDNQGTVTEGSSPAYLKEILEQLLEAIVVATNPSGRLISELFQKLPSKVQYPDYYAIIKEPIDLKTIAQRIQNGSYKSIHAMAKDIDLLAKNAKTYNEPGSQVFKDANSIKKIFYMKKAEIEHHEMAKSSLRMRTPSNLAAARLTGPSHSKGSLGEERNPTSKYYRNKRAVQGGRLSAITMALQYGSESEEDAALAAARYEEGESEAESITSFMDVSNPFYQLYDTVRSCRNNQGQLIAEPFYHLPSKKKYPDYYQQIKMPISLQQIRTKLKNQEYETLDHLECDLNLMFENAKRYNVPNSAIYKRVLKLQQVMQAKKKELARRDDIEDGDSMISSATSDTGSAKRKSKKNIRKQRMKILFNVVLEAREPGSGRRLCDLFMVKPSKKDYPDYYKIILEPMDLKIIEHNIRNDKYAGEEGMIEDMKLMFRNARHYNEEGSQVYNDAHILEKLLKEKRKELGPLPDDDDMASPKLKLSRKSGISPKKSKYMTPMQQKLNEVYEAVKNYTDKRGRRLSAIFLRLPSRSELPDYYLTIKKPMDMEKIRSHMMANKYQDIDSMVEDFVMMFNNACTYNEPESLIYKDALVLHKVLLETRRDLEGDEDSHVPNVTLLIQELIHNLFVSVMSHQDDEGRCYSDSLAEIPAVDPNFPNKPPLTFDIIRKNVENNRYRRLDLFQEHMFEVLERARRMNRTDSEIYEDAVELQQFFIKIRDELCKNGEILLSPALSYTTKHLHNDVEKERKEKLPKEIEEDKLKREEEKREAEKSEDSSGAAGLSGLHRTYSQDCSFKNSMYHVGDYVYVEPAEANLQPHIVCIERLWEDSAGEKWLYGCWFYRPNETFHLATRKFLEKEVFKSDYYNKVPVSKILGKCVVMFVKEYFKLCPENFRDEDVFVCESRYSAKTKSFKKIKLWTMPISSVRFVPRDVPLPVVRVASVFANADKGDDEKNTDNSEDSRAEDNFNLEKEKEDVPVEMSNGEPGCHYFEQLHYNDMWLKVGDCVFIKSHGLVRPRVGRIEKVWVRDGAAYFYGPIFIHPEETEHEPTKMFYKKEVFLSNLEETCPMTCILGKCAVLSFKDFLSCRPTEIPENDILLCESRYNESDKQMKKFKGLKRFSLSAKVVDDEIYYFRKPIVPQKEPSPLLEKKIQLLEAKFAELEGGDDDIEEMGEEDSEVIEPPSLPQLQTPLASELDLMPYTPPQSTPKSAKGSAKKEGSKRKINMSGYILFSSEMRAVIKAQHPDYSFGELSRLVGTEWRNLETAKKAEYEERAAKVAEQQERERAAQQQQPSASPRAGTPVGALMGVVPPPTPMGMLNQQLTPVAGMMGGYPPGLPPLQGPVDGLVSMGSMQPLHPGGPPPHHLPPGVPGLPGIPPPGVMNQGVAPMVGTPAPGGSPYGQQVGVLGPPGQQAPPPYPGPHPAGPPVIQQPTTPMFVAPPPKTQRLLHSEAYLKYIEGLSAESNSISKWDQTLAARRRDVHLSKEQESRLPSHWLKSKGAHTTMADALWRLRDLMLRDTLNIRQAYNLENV
Bromodomain-containing protein 7 (Homo sapiens), sequence (Q9NPI1 whole entry): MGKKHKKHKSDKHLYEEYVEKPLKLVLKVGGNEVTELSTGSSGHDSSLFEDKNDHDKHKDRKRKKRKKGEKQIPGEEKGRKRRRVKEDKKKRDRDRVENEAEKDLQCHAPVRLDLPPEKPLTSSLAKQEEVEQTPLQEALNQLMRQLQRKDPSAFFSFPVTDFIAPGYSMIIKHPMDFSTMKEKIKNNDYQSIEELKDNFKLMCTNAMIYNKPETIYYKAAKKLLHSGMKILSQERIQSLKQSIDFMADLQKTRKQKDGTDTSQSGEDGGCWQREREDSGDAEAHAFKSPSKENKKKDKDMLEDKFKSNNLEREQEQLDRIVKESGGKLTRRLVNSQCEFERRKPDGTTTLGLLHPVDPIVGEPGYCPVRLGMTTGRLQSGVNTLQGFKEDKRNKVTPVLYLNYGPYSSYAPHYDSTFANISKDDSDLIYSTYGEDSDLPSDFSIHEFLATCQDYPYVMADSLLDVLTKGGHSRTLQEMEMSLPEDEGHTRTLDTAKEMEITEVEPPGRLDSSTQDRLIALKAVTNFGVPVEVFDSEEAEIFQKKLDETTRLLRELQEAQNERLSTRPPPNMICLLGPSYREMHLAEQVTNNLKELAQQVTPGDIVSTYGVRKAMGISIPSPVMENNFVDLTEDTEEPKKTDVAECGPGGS
Bromodomain-containing protein 3, sequence (Q15059 2-726 limits assumed): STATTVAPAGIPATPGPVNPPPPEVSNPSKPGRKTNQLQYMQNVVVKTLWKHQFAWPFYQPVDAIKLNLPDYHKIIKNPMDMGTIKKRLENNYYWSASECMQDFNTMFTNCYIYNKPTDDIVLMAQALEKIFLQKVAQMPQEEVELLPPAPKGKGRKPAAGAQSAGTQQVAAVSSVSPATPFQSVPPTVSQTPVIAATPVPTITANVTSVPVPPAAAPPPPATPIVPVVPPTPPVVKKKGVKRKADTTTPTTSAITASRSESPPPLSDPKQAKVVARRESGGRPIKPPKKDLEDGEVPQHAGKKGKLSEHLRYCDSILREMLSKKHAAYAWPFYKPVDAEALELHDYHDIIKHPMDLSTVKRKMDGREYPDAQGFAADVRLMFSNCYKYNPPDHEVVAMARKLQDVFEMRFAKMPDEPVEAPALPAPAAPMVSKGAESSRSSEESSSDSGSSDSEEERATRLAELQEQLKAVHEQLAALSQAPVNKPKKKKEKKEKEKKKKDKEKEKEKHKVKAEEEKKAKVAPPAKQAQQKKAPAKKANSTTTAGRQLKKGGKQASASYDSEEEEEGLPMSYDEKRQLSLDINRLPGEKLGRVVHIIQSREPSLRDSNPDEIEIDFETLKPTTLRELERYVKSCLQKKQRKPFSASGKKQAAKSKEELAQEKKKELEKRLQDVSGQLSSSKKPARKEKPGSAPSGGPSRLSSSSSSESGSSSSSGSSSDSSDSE
Bromodomain-containing protein 1 (Homo sapiens), sequence (O95696 whole entry): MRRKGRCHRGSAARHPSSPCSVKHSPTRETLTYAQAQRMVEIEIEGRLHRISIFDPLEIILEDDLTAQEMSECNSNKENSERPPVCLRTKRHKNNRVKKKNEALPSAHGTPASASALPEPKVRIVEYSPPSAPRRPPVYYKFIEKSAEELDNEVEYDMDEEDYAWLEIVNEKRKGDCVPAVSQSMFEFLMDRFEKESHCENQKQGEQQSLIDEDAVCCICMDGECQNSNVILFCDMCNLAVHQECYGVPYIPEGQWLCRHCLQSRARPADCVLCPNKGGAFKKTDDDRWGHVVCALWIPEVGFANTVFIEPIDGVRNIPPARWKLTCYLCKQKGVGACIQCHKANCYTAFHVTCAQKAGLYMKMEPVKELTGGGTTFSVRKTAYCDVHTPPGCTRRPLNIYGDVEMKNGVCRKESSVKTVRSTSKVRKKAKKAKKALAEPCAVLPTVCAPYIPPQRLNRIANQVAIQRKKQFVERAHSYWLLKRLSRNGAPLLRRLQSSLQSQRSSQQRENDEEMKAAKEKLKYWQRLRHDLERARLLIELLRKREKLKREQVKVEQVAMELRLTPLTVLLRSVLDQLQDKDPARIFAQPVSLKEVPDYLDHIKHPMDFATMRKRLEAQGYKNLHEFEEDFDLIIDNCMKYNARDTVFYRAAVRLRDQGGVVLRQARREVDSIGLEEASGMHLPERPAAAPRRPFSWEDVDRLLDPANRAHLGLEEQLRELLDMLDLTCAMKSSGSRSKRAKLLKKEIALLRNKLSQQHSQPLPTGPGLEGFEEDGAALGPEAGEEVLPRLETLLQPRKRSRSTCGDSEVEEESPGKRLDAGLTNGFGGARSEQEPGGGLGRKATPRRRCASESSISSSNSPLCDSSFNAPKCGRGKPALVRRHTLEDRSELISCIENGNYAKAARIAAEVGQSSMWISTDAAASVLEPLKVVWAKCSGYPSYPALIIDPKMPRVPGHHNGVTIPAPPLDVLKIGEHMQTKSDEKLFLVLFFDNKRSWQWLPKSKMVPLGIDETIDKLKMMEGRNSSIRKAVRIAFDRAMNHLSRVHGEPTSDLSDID
Bromodomain-containing protein 9, sequence (Q9H8M2 whole entry): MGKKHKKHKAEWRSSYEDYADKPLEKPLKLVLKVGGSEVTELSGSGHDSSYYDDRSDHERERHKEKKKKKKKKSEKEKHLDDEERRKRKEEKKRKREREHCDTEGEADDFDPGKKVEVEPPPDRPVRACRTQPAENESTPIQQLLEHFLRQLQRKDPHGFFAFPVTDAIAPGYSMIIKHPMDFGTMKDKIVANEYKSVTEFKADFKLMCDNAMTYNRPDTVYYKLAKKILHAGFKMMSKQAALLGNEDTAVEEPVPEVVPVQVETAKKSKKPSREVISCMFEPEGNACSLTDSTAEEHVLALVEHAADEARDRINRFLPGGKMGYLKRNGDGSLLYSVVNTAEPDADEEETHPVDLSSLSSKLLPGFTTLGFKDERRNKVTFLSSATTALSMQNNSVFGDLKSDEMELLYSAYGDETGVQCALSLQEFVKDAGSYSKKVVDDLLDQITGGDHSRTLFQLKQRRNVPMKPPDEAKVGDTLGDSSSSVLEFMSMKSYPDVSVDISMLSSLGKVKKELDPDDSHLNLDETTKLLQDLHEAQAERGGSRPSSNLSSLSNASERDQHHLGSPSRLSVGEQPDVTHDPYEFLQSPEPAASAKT

Activity [1]: 90%
logD [2]: 3
IC50 [3]: 126 nM
IC50 [4]: 50.1 nM
Activity [5]: 82%
Activity [6]: 75%
Activity [7]: 73%
Activity [8]: 53%
Activity [9]: 62%
Activity [10]: 44%
Activity [11]: 86%
pKd [12]: 8.9
Kd [13]: > 316 nM
Kd [14]: 200 nM
Kd [15]: > 316 nM
Kd [16]: > 316 nM
Kd [17]: > 3160 nM
Compound: Cc1nnc2c(NC3CCN(CC(C)(C)F)CC3)cc(C(=O)N3[C@@H]4c5ccccc5C[C@H]3C(=O)N[C@@H]4C(C)C)nn12
Activity [18]: Dose-Dependent Effect
Activity [19]: Dose-Dependent Effect
